Data set [1] deals with A549 cells. The data set is described as follows: Cytotoxicity MTT assay of siRNA/nanoparticle formulations and erlotinib. The class given is cell-based. Here is the method: MTT assay was used to determine the effect of siG12S loaded nanoparticles on the proliferation of A549 cells. Chemosensitivity of siG12S-treated cells to erlotinib was also assessed. Cells (1×10^4 per well) were seeded in 96 well plates and incubated at 37° C. in a humidified atmosphere with 5% carbon dioxide for 24 h. The cells were then treated with different formulations of nanoparticles, siG12S and erlotinib. Cells were incubated for 72 h. 10 μL of 12 Mm MTT reagent were then added to each well. This was then incubated at 37° C. for 4 h. The medium was aspirated and 50 μL of sterile DMSO was added to each well and mixed thoroughly with pipet. The cells were then incubated at 37° C. for 10 min. The plate was read at 540 and 650 nm.
For orientation: Tetrazolium assays rely on reduction of a dye to a coloured formazan, in cell work by metabolically active cells.

The conditions of data set [2]: in water; cited from earlier work.
Data set [3] in a line: Far-UV circular dichroism, secondary structure estimated with K2D2. The class given is physicochemical. To be noted: bevacizumab particles reconstituted in acetate buffer; K2D2 estimate. Here is the method: CD measurements were performed with Jasco J-810 Spectropolarimeter (Jasco, Md., USA) operating at 20° C. using 0.5 mg/ml of reconstituted solutions of IgG nanoparticles in acetate buffer. CD spectra were obtained in the far UV region (260-190 nm) using a quartz cell of 0.1 path length in order to probe the stability of the secondary structure of the manufactured nanoparticles. A scanning speed of 50 nm/min with a 0.5-second response time was applied followed by five accumulations for each sample. The experiment was repeated in triplicate for each sample. Surfactants dissolved in the acetate buffer at corresponding concentrations were used as blanks. Signals from blanks were subtracted from sample signals. The CD signals were converted to mean residue weight ellipticity and the percentage of the secondary structure retained was estimated using the K2D2 software.
Far UV CD was used to probe for perturbations in the secondary structure of the antibodies following reconstitution in acetate buffer (pH 6). This was done to test whether the secondary structure of the antibodies was still intact, as major perturbation in the secondary structure of proteins may lead to loss or reduction of biological activity.

Data set [4] in a line: Photon correlation spectroscopy (PCS): particle size and zeta potential, bevacizumab nanoparticles. To be noted: 5 mg/ml bevacizumab solution. The data set is classed as physicochemical. Here is the method: Particle size (by intensity) and zeta potential measurements were performed by PCS using Zetasizer Nano ZS (Malvern Instruments, U.K.). The pellets formed after centrifugation at 6,500 rpm for 5 min were thoroughly rinsed and resuspended in deionized water by vortexing. The samples were then sonicated for approximately 5 min. Intensity autocorrelation was measured at a scattering angle (θ) of 173° at 25° C. The Z-average and polydispersity index (PDI) were recorded in triplicate. For zeta potential measurement, the samples were loaded into a universal dip cell (Malvern Instruments, U.K.) before recording the zeta potential in triplicate.
The surfactants seemed to have a concentration-dependent influence on the size and zeta potential of the nanoparticles. […] According to the Manufacturer's Manual, PCS is based on Brownian motion and particles with size above 10 μm tend to quickly sediment. In certain embodiments, under these circumstances, size recorded by the instrument may be due to artifact. […] For surfactant controls, distinct concentrations of the surfactants used in the nanoprecipitation process were dissolved in 0.01 N HCl and titrated with 0.1 N NaOH up to pH 8.4. In the case of nanoparticles, an increase in size was observed as the concentration of the non-ionic surfactant in the precipitation medium increased.

In data set [5] the test system is A549 cells. The data set is described as follows: Cytotoxicity MTT assay of bevacizumab particles. To be noted: 72 h. The class given is cell-based. Here is the method:
Cells (1×10^4 cells/well) were seeded in 96 well plates and incubated at 37° C. in a humidified air atmosphere with 5% carbon dioxide for 48 h. […] At the end of incubation (after 72 h), MTT reagent was added to each well and incubated for 3 h.
The medium was aspirated, and 100 μL of DMSO was added. The plate was read at 560 nm. Cells treated with DMSO and relevant surfactants were used as a control.
The control contained the appropriate concentrations of the relevant surfactant. (FIGS. 16-18).

For data set [6], the system named is A549 cells. Briefly: Uptake/internalization of FITC-labeled bevacizumab particles (flow cytometry, fluorescence microscopy). The data set is classed as cell-based. To be noted: 100 μg/mL FITC-labeled particles, 60 min. Here is the method: (§1) A549 and MRC-5 cells (2×10^4 cells/well) were seeded in 8 well coated glass slides and incubated for 48 h. […] Cells were washed with PBS, fixed with 2% paraformaldehyde, and incubated at room temperature for 20 min. PBS washed cells were then blocked with 5% BSA for 30 min at room temperature. Cells were stained with AlexaFluoro-555 labeled wheat germ agglutinin (WGA) and 4′,6-diamidino-2-phenylindole (DAPI) to visualize plasma membrane and nucleus respectively. Cells were mounted and observed under a Leica DMI 6000B fluorescence microscope (Leica Microsystems, Exton, Pa.).
About 1 million cells/well were seeded in a 12 well plate and incubated for 48 h. […] The cells were trypsinized and centrifuged at 300 g for 5 min, and the pellet was washed and resuspended in 0.4% trypan blue (TB) solution in PBS to quench the extracellular FITC fluorescence. TB, while quenching the FITC fluorescence of non-internalized particles, causes them to fluoresce red whereas an internalized particle will fluoresce green. […] The samples were then analyzed by flow cytometry (BDFACS caliber). 10,000 cells were measured in each sample.
Mean fluorescence intensity obtained from this experiment was compared to that obtained when the A549 cells were treated with 100 μg/mL FITC-labeled bavacizumab nanoparticles alone. […]
(In general: A flow cytometer gives signals particle by particle.)

The next data set concerns MRC-5 cells. The description is as above. The data set is classed as cell-based. To be noted: 100 μg/mL FITC-labeled particles, 60 min. How it is done:
as §1
About 1 million cells/well were seeded in a 12 well plate and incubated for 48 h. […] The cells were trypsinized and centrifuged at 300 g for 5 min, and the pellet was washed and resuspended in 0.4% trypan blue (TB) solution in PBS to quench the extracellular FITC fluorescence. TB, while quenching the FITC fluorescence of non-internalized particles, causes them to fluoresce red whereas an internalized particle will fluoresce green. […] The samples were then analyzed by flow cytometry (BDFACS caliber). 10,000 cells were measured in each sample. […]
A549 and MRC-5 cell lines were incubated with FITC-labeled nanoparticles for 15 and 60 minutes. The cells were then washed with D-PBS and extracellular florescence was quenched with trypan blue so that only internalized cells were analyzed. 10,000 cells were measured in each sample.

Data set [7] is described as follows: Scanning electron microscopy (SEM) particle size estimate. The data set is classed as physicochemical. An excerpt: The morphology of the manufactured nanoparticles and the unprocessed IgG was observed by scanning electron microscopy using the Zeiss Supra 50VP system (Zeiss, Germany). Powders were mounted onto aluminum stubs using double sided adhesive tape and were made electrically conductive by coating in a thin layer of gold. The coated samples were then examined under microscope operated at an acceleration voltage of 5 kV.

Another data set deals with serum nuclease. The data set is described as follows: siRNA stability in serum (50% FBS, gel electrophoresis). The data set is classed as in vitro ADME. To be noted: 37° C., up to 48 h. How it is done:
IgG-poloxamer-188 nanoparticles (IP-nanoparticles) loaded with siG12S, IgG nanoparticles loaded with siG12S and naked siG12S were incubated in F12K medium containing 50% FBS at 37° C. Aliquots of 5 μl samples were taken at time points up to 48 h. Samples were immediately mixed with 2% SDS, and 5 μl TBE urea sample buffer. The mixture was then heated at 70° C. for 3 minutes in order to deactivate the nuclease enzyme in the serum. The integrity of the siRNA was then analyzed using 15% TBE-ureal gel. siRNA bands were visualized by ethidium bromide staining.
Serum stability was assessed by incubating the naked siRNA and siRNA-loaded nanoparticles in 50% serum and the integrity of the siRNA assessed using gel electrophoresis at different time points. FIG. 41 illustrates the finding that naked siRNA was intact immediately after incubation but degraded after 1 h. In contrast, siRNA in IP nanoparticles was intact after 48 h. siRNA in IgG-nanoparticles was also intact up to 24 h. However, IgG-nanoparticles were not able to protect the siRNA after 24 h.

Another data set concerns KRAS. The data set is described as follows: In vitro gene silencing, western blot analysis. To be noted: A549 cells, 50 nM siRNA, 96 h. The class given is cell-based. Here is the method:
A549 cells were transfected 24 h after seeding in a 6-well plate at density of 2×10^5/well. Naked siG12S and control siRNA (Thermal Scientific, Amarillo, Tex.) were transfected with lipofectamine RNAimax transfection reagent (Invitrogen). siRNA-loaded IP and IgG nanoparticles were incubated with the cells at 37° C. in a humidified air environment with 5% carbon dioxide for 96 h. The total concentration of siRNA used in all experiments was 50 nM.
Cells were washed twice with ice-cold PBS and then lysed in M-Per mammalian lysis buffer (Thermo Scientific). The protein concentration of the lysates was determined with the Bradford reagent (Bio Rad), and equal amounts of protein were subjected to SDS-PAGE using a 10% gel. Separated proteins were transferred to a nitrocellulose membrane, which was then exposed to 5% nonfat dried milk in TBS containing 0.1% Tween 20 (0.1% TBST) for 1 h at room temperature and incubated overnight at 4° C. with antibodies against KRAS (Abcam, Cambridge, Mass.) or actin (Sigma). The membranes were then washed with 0.1% TBST before being incubated with horseradish peroxidase-conjugated goat antibodies to rabbit (Santa Cruz Biotechnology). Immune complexes were detected with chemiluminescence reagents (Perkin-Elmer Life Science).
(In general: In western blotting, separated proteins are transferred to a membrane and probed.)

In another data set the test system is IL-6. Briefly: Immunogenicity and inflammatory reaction in murine macrophages (ELISA). The class given is cell-based. To be noted: RAW 264.7, 24 h. How it is done:
(§2) RAW 264.7 murine macrophage cells were seeded in a 96 well plate at a density of 1.5×10^5/well at 37° C. in humidified air with 5% carbon dioxide for 24 h. The cells were then treated with 100 μg/mL of LPS, naked siG12S, siG12S-loaded IP-nanoparticles, siG12S-loaded IgG-nanoparticles and culture medium seperately for 24 h. TNF-α and IL-6 concentrations in supernatant from cultured cells were analyzed using the respective ELISA kit according to the manufacturer's instructions.

For the next data set, the system named is TNF-α. The data set is described as above. The data set is classed as cell-based. To be noted: RAW 264.7, 24 h. How it is done: as §2

We go through six compounds from patent publication US20160213777A1, “Novel Delivery Compositions and Methods of Using Same” (THOMAS JEFFERSON UNIVERSITY, priority 2013, published 2016).

Consider `C#Cc1cccc(Nc2ncnc3cc(OCCOC)c(OCCOC)cc23)c1` [erlotinib], for which, in the data set with A549 cells [1] (alone or with siG12S (50 nM)-loaded IP nanoparticles), the “sensitivity of A549 cells to erlotinib” value is “resistant”.

On to “Polyoxyethylene (20) sorbitan monolaurate [Tween 20]”, for which the “critical micelle concentration (CMC)” value in data set [2] is recorded as 0.0075%.

Take “Polyoxyethylene (80) sorbitan monooleate [Tween 80]”: the “critical micelle concentration (CMC)” value in data set [2] is given as 0.0017%.

The IC50 is the concentration needed to halve the response being measured. Lower therefore signals greater potency in that assay. In the case of bevacizumab [Unprocessed bevacizumab], in data set [3], the “% alpha helix” value is 7.52% and the “% β-sheet” value was 32.19%. Besides, the “Zeta potential (mV)” value in data set [4] is reported as −4.6 ± 0.3 mV. For the same compound, the IC50 with A549 cells [5] was ~1800 nM. The “internalization by A549 cells” value in the data set on A549 cells [6] is on record as “not internalized”. Moreover, the “internalization by MRC-5 cells” value with MRC-5 cells is “not internalized”. Further, the “particle size estimated from SEM” value in data set [7] is given as “approximately 20 μm”.

As to “naked siG12S: siRNA against mutated KRAS G12S; sense GUUGGAGCUAGUGGCGUAGdTdT (SEQ ID NO:1), antisense SEQ ID NO:2 (sense GUUGGAGCUAGUGGCGUAGNN; antisense CUACGCCACUAGCUCCAACNN; dTdT overhangs, chemistry not fully specified)”, in the data set on serum nuclease, the “time siRNA remained intact in serum” value is on record as < 1 h. Further, the “KRAS expression (knockdown)” value in the data set with KRAS is reported as “major reduction in KRAS expression”. Besides, in the data set on A549 cells [1] (50 nM siRNA, 72 h), the “growth of A549 cells” value is “did not inhibit the growth”. Further, the “production of IL-6” value with IL-6 is recorded as “upgraded the production”. The “production of TNF-α” value in the data set on TNF-α is on record as “upgraded the production”.

For the compound “polyethylene glycol monooleyl ether [Brij 97]”, the “critical micelle concentration (CMC)” value in data set [2] is on record as 0.029%.
